# Data taken from patent publication US6544985B2, “Dihydro-benzo [b][1,4]diazepin-2-one derivatives” (Hoffman-La Roche Inc., priority 2001, dated 2003).
row,Structure (SMILES),melting point
1,"CC(C)CN(C)c1cc2c(cc1C(F)(F)F)NC(=O)CC(c1cccc(-n3cccn3)c1)=N2 [Example 171, 7-(Isobutyl-methyl-amino)-4-(3-pyrazol-1-yl-phenyl)-8-trifluoromethyl-1,3-dihydro-benzo[b][1,4]diazepin-2-one]",182 °C
2,"CC(C)N(C)c1cc2c(cc1C(F)(F)F)NC(=O)CC(c1ccnc(C#N)c1)=N2 [Example 172, 4-[8-(Isopropyl-methyl-amino)-4-oxo-7-trifluoromethyl-4,5-dihydro-3H-benzo[b][1,4]diazepin-2-yl]-pyridine-2-carbonitrile]",189 °C
3,"CC(C)CN(C)c1cc2c(cc1Cl)NC(=O)CC(c1cccc(-n3cncn3)c1)=N2 [Example 173, 8-Chloro-7-(isobutyl-methyl-amino)-4-(3-[1,2,4]triazol-1-yl-phenyl)-1,3-dihydro-benzo[b][1,4]diazepin-2-one]",213 °C
4,"CC(C)CN(C)c1cc2c(cc1Cl)NC(=O)CC(c1cccc(-n3ccnn3)c1)=N2 [Example 175, 8-Chloro-7-(isobutyl-methyl-amino)-4-(3-[1,2,3]triazol-1-yl-phenyl)-1,3-dihydro-benzo[b][1,4]diazepin-2-one]",85 °C
5,"CC(C)CN(C)c1cc2c(cc1C(F)(F)F)NC(=O)CC(c1cccc(-n3ccnn3)c1)=N2 [Example 176, 7-(Isobutyl-methyl-amino)-4-(3-[1,2,3]triazol-1-yl-phenyl)-8-trifluoromethyl-1,3-dihydro-benzo[b][1,4]diazepin-2-one]",202 °C
6,"CC(C)CNc1cc2c(cc1C(F)(F)F)NC(=O)CC(c1cccc(-n3ccnc3)c1)=N2 [Example 177, 4-(3-Imidazol-1-yl-phenyl)-7-isobutylamino-8-trifluoromethyl-1,3-dihydro-benzo[b][1,4]diazepin-2-one]",221 °C
7,"CC(C)CNc1cc2c(cc1Cl)NC(=O)CC(c1cccc(-n3ccnc3)c1)=N2 [Example 178, 8-Chloro-4-(3-imidazol-1-yl-phenyl)-7-isobutylamino-1,3-dihydro-benzo[b][1,4]diazepin-2-one]",212 °C
8,"CC(C)CNc1cc2c(cc1Cl)NC(=O)CC(c1cccc(-n3ccnn3)c1)=N2 [Example 179, 8-Chloro-7-(isobutyl-amino)-4-(3-[1,2,3]triazol-1-yl-phenyl)-1,3-dihydro-benzo[b][1,4]diazepin-2-one]",249 °C
9,"CC(C)CNc1cc2c(cc1C(F)(F)F)NC(=O)CC(c1cccc(-n3ccnn3)c1)=N2 [Example 180, 7-(Isobutyl-amino)-4-(3-[1,2,3]triazol-1-yl-phenyl)-8-trifluoromethyl-1,3-dihydro-benzo[b][1,4]diazepin-2-one]",212 °C
10,"CC(C)CNc1cc2c(cc1Cl)NC(=O)CC(c1cccc(-n3cncn3)c1)=N2 [Example 181, 8-Chloro-7-(isobutyl-amino)-4-(3-[1,2,4]triazol-1-yl-phenyl)-1,3-dihydro-benzo[b][1,4]diazepin-2-one]",222 °C
11,"CC(C)CNc1cc2c(cc1C(F)(F)F)NC(=O)CC(c1cccc(-n3cncn3)c1)=N2 [Example 182, 7-(Isobutyl-amino)-4-(3-[1,2,4]triazol-1-yl-phenyl)-8-trifluoromethyl-1,3-dihydro-benzo[b][1,4]diazepin-2-one]",191 °C
12,"CCN(C)c1cc2c(cc1Cl)NC(=O)CC(c1cccc(-c3nc(CO)cs3)c1)=N2 [Example 183, 8-Chloro-7-(ethyl-methyl-amino)-4-[3-(4-hydroxymethyl-thiazol-2-yl)-phenyl]-1,3-dihydro-benzo[b][1,4]diazepin-2-one]",136 to 137 °C
13,"CCCN(C)c1cc2c(cc1Cl)NC(=O)CC(c1cccc(-c3nc(CO)cs3)c1)=N2 [Example 184, 8-Chloro-4-[3-(4-hydroxymethyl-thiazol-2-yl)-phenyl]-7-(methyl-propyl-amino)-1,3-dihydro-benzo[b][1,4]diazepin-2-one]",211 to 213 °C
14,"CC(C)N(C)c1cc2c(cc1Cl)NC(=O)CC(c1cccc(-c3nc(CO)cs3)c1)=N2 [Example 185, 8-Chloro-4-[3-(4-hydroxymethyl-thiazol-2-yl)-phenyl]-7-(isopropyl-methyl-amino)-1,3-dihydro-benzo[b][1,4]diazepin-2-one]",193 to 195 °C
15,"CCN(C)c1cc2c(cc1Cl)NC(=O)CC(c1cccc(-c3nc(CO)co3)c1)=N2 [Example 187, 8-Chloro-7-(ethyl-methyl-amino)-4-[3-(4-hydroxymethyl-oxazol-2-yl)-phenyl]-1,3-dihydro-benzo[b][1,4]diazepin-2-one]",165 to 166 °C
16,"CCCN(C)c1cc2c(cc1Cl)NC(=O)CC(c1cccc(-c3nc(CO)co3)c1)=N2 [Example 188, 8-Chloro-4-[3-(4-hydroxymethyl-oxazol-2-yl)-phenyl]-7-(methyl-propyl-amino)-1,3-dihydro-benzo[b][1,4]diazepin-2-one]",166 to 167 °C
17,"CC(C)N(C)c1cc2c(cc1Cl)NC(=O)CC(c1cccc(-c3nc(CO)co3)c1)=N2 [Example 189, 8-Chloro-4-[3-(4-hydroxymethyl-oxazol-2-yl)-phenyl]-7-(isopropyl-methyl-amino)-1,3-dihydro-benzo[b][1,4]diazepin-2-one]",143 to 145 °C

row,Structure (SMILES),melting point
1,"CC(C)CN(C)c1cc2c(cc1Cl)NC(=O)CC(c1cccc(-c3nc(CO)co3)c1)=N2 [Example 190, 8-Chloro-4-[3-(4-hydroxymethyl-oxazol-2-yl)-phenyl]-7-(isobutyl-methyl-amino)-1,3-dihydro-benzo[b][1,4]diazepin-2-one]",166 to 167 °C
2,"CNCc1csc(-c2cccc(C3=Nc4cc(N(C)C)c(Cl)cc4NC(=O)C3)c2)n1 [Example 191, 8-Chloro-7-dimethylamino-4-[3-(4-methylaminomethyl-thiazol-2-yl)-phenyl]-1,3-dihydro-benzo[b][1,4]diazepin-2-one]",129 to 130 °C
3,"CN(C)c1cc2c(cc1Cl)NC(=O)CC(c1cccc(-c3nc(CN4CCOCC4)cs3)c1)=N2 [Example 192, 8-Chloro-7-dimethylamino-4-[3-(4-morpholin-4-ylmethyl-thiazol-2-yl)-phenyl]-1,3-dihydro-benzo[b][1,4]diazepin-2-one]",138 to 143 °C
4,"CN(C)c1cc2c(cc1Cl)NC(=O)CC(c1cccc(-c3csc(CO)n3)c1)=N2 [Example 193, 8-Chloro-7-dimethylamino-4-[3-(2-hydroxymethyl-thiazol-4-yl)-phenyl]-1,3-dihydro-benzo[b][1,4]diazepin-2-one]",176 to 178 °C
5,"CN(C)c1cc2c(cc1Cl)NC(=O)CC(c1cccc(-c3csc(N)n3)c1)=N2 [Example 194, 4-[3-(2-Amino-thiazol-4-yl)-phenyl]-8-chloro-7-dimethylamino-1,3-dihydro-benzo[b][1,4]diazepin-2-one]",247 to 248 °C
6,"CN(C)c1cc2c(cc1Cl)NC(=O)CC(c1cccc(-c3csc(NC(=N)N)n3)c1)=N2 [Example 196, N-{4-[3-(7-Chloro-8-dimethylamino-4-oxo-4,5-dihydro-3H-benzo[b][1,4]diazepin-2-yl)-phenyl]-thiazol-2-yl}-guanidine]",221 °C (dec.)
7,"CN(C)c1cc2c(cc1Cl)NC(=O)CC(c1cccc(-c3csc(Nc4ccncc4)n3)c1)=N2 [Example 197, 8-Chloro-7-dimethylamino-4-{3-[2-(pyridin-4-ylamino)-thiazol-4-yl]-phenyl}-1,3-dihydro-benzo[b][1,4]diazepin-2-one]",231 to 234 °C
8,"CCCN(C)c1cc2c(cc1Cl)NC(=O)CC(c1cccc(-c3coc(C)n3)c1)=N2 [Example 198, 8-Chloro-4-[3-(2-methyl-oxazol-4-yl)-phenyl]-7-(methyl-propyl-amino)-1,3-dihydro-benzo[b][1,4]diazepin-2-one]",163 to 164 °C
9,"CCCN(C)c1cc2c(cc1C)NC(=O)CC(c1cccc(-c3nc(CO)cs3)c1)=N2 [Example 199, 4-[3-(4-Hydroxymethyl-thiazol-2-yl)-phenyl]-8-methyl-7-(methyl-propyl-amino)-1,3-dihydro-benzo[b][1,4]diazepin-2-one]",222 to 224 °C
10,"CCCN(C)c1cc2c(cc1C)NC(=O)CC(c1cccc(-c3nc(CO)co3)c1)=N2 [Example 200, 4-[3-(4-Hydroxymethyl-oxazol-2-yl)-phenyl]-8-methyl-7-(methyl-propyl-amino)-1,3-dihydro-benzo[b][1,4]diazepin-2-one]",200 to 202 °C
11,"CN(C)c1cc2c(cc1C(F)(F)F)NC(=O)CC(c1cccc(-c3nc(CO)cs3)c1)=N2 [Example 201, 7-Dimethylamino-4-[3-(4-hydroxymethyl-thiazol-2-yl)-phenyl]-8-trifluoromethyl-1,3-dihydro-benzo[b][1,4]diazepin-2-one]",198 to 199 °C
12,"CN(C)c1cc2c(cc1C(F)(F)F)NC(=O)CC(c1cccc(-c3nc(CO)co3)c1)=N2 [Example 202, 7-Dimethylamino-4-[3-(4-hydroxymethyl-oxazol-2-yl)-phenyl]-8-trifluoromethyl-1,3-dihydro-benzo[b][1,4]diazepin-2-one]",197 to 198 °C
13,"CCCN(C)c1cc2c(cc1C(F)(F)F)NC(=O)CC(c1cccc(-c3nc(CO)cs3)c1)=N2 [Example 203, 4-[3-(4-Hydroxymethyl-thiazol-2-yl)-phenyl]-7-(methyl-propyl-amino)-8-trifluoromethyl-1,3-dihydro-benzo[b][1,4]diazepin-2-one]",177 to 180 °C
14,"CN(C)c1cc2c(cc1C(F)(F)F)NC(=O)CC(c1cccc(-c3nnc(CCO)s3)c1)=N2 [Example 205, 7-Dimethylamino-4-{3-[5-(2-hydroxy-ethyl)-[1,3,4]thiadiazol-2-yl]-phenyl}-8-trifluoromethyl-1,3-dihydro-benzo[b][1,4]diazepin-2-one]",234 to 237 °C
15,"CN(C)c1cc2c(cc1C(F)(F)F)NC(=O)CC(c1cccc(-c3nnc(CCO)o3)c1)=N2 [Example 207, 7-Dimethylamino-4-{3-[5-(2-hydroxy-ethyl)-[1,3,4]oxadiazol-2-yl]-phenyl}-8-trifluoromethyl-1,3-dihydro-benzo[b][1,4]diazepin-2-one]",237 °C (dec.)
16,"CN(C)c1cc2c(cc1C(F)(F)F)NC(=O)CC(c1cccc(-c3cocn3)c1)=N2 [Example 208, 7-Dimethylamino-4-(3-oxazol-4-yl-phenyl)-8-trifluoromethyl-1,3-dihydro-benzo[b][1,4]diazepin-2-one]",218 to 219 °C
